Data published in BindingDB's records for doi:10.1016/j.bioorg.2015.06.004 (University of Karachi, 2015).

Each molecule was assayed against Urease [D459Y,K653P] (Canavalia ensiformis, UniProt P07374, D459Y/K653P) (assay: Urease Inhibition Assay). Conditions: pH 8.2.
Protocol: The mixture of this enzyme inhibition assay was composed of 10 µL of enzyme (5 U/mL) and 10 µL of each test compound in the series (3a-3s) in 40 µL buffer (100 mM urea, 0.01 M K2HPO4, 1 mM EDTA and 0.01 M […], pH 8.2). The resulting mixture in for each test compound was incubated for 30 min at 37 °C in 96-well plates. Subsequently, the phenol reagents (40 µL) (1%, w/v phenol and 0.005%, w/v sodium nitroprusside) and alkali reagent (40 µL) (0.5%, w/v NaOH and 0.1% active chloride NaOCl) were dropped down into each well. The absorbance of the colored resultant mixtures was measured after 30 min at 625 nm.

Sequence of Urease [D459Y,K653P] (P07374 whole entry D459Y/K653P): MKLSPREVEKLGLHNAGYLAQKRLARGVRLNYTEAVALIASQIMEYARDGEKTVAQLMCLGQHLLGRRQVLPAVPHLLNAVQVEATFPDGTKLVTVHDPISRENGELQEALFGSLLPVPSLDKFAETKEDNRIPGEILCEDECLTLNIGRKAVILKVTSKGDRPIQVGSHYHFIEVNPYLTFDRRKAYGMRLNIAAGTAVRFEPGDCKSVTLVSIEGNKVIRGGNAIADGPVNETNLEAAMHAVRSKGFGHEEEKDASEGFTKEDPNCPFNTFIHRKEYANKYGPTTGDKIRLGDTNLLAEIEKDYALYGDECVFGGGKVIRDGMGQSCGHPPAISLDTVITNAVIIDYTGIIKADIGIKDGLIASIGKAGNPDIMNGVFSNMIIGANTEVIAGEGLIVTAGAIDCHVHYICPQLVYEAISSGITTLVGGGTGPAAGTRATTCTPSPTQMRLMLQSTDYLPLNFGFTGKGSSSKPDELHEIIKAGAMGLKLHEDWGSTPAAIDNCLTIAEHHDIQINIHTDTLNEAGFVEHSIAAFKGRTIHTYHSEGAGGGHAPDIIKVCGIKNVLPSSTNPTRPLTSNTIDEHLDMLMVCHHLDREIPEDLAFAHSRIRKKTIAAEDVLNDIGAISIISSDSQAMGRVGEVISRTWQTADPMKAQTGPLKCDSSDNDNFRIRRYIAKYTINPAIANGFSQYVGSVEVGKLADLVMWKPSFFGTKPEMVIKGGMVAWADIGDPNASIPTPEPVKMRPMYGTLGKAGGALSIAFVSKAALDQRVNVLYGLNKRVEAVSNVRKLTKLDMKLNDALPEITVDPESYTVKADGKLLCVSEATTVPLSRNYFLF

Going from `COc1cccc(NC(=S)NN=C(C)c2cc3ccccc3o2)c1` [2-(1-(Benzofuran-2-yl)ethylidene)-N-(3-methoxyphenyl)hydrazinecarbothioamide (3n)] to `CC(=NNC(=S)Nc1cccc(C)c1)c1cc2ccccc2o1` [1-[1-(2-benzofuranyl)ethylideneamino]-3-(3-methylphenyl)thiourea], the IC50 rises from 0.102 µM to 0.283 µM (2.8-fold). The first is the more potent here.

Compared with `CC(=NNC(=S)Nc1cccc(Cl)c1)c1cc2ccccc2o1` [2-(1-(Benzofuran-2-yl)ethylidene)-N-(3-chlorophenyl)hydrazinecarbothioamide (3b)], `CC(=NNC(=S)Nc1cccc(Br)c1)c1cc2ccccc2o1` [2-(1-(Benzofuran-2-yl)ethylidene)-N-(3-bromophenyl)hydrazinecarbothioamide (3i)] is 9.6-fold higher in IC50: 1.13 µM for the first, 10.9 µM for the second.

First: C=CCNC(=S)NN=C(C)c1cc2ccccc2o1 [N-Allyl-2-(1-(benzofuran-2-yl)ethylidene)hydrazinecarbothioamide (3s)]
Second: CC(=NNC(=S)Nc1ccccc1)c1cc2ccccc2o1 [2-(1-(Benzofuran-2-yl)ethylidene)-N-phenylhydrazinecarbothioamide (3a)]
The IC50 of the first is 7.8-fold higher: 0.694 µM for the first, 0.089 µM for the second.

Going from `CC(=NNC(=S)Nc1ccccc1F)c1cc2ccccc2o1` [2-(1-(Benzofuran-2-yl)ethylidene)-N-(2-fluorophenyl)hydrazinecarbothioamide (3g)] to `CC(=NNC(=S)Nc1ccccc1Br)c1cc2ccccc2o1` [2-(1-(Benzofuran-2-yl)ethylidene)-N-(2-bromophenyl)hydrazinecarbothioamide (3j)], the IC50 rises from 0.321 µM to 0.564 µM (1.8-fold). The first is the more potent here.

First: CC(=NNC(=S)Nc1ccc(F)cc1F)c1cc2ccccc2o1 [2-(1-(Benzofuran-2-yl)ethylidene)-N-(2,4-difluorophenyl)hydrazinecarbothioamide (3h)]
Second: CC(=NNC(=S)Nc1ccc(Cl)cc1Cl)c1cc2ccccc2o1 [2-(1-(Benzofuran-2-yl)ethylidene)-N-(2,4-dichlorophenyl)-hydrazinecarbothioamide (3c)]
The IC50 of the first is 1.5-fold lower: 0.387 µM for the first, 0.592 µM for the second. The first is the more potent here.

`COc1ccc(NC(=S)NN=C(C)c2cc3ccccc3o2)cc1` [2-(1-(Benzofuran-2-yl)ethylidene)-N-(4-methoxyphenyl)hydrazinecarbothioamide (3m)] and `CC(=NNC(=S)Nc1ccc(C)cc1)c1cc2ccccc2o1` [SMR000377934] are within 1.5-fold of each other in IC50: 2.61 µM for the first, 3.47 µM for the second.

Going from `CC(=NNC(=S)Nc1cccc([N+](=O)[O-])c1)c1cc2ccccc2o1` [2-(1-(Benzofuran-2-yl)ethylidene)-N-(3-nitrophenyl)hydrazinecarbothioamide (3k)] to `CC(=NNC(=S)Nc1ccc([N+](=O)[O-])cc1)c1cc2ccccc2o1` [2-(1-(Benzofuran-2-yl)ethylidene)-N-(4-nitrophenyl)hydrazinecarbothioamide (3l)], the IC50 rises from 0.077 µM to 0.181 µM (2.4-fold). The first is the more potent here.

Compared with `CC(=NNC(=S)Nc1cc(Cl)ccc1Cl)c1cc2ccccc2o1` [2-(1-(Benzofuran-2-yl)ethylidene)-N-(2,5-dichlorophenyl)-hydrazinecarbothioamide (3d)], `CC(=NNC(=S)Nc1ccccc1C)c1cc2ccccc2o1` [2-(1-(Benzofuran-2-yl)ethylidene)-N-(2-methylphenyl)hydrazinecarbothioamide (3p)] is 6.4-fold lower in IC50: 2.01 µM for the first, 0.314 µM for the second.

Going from `CC(=NNC(=S)Nc1ccc(F)cc1)c1cc2ccccc2o1` [2-(1-(Benzofuran-2-yl)ethylidene)-N-(4-fluorophenyl)hydrazinecarbothioamide (3e)] to `CC(=NNC(=S)Nc1cccc(F)c1)c1cc2ccccc2o1` [2-(1-(Benzofuran-2-yl)ethylidene)-N-(3-fluorophenyl)hydrazinecarbothioamide (3f)], the IC50 rises from 0.177 µM to 1.15 µM (6.5-fold).

With `COc1ccccc1NC(=S)NN=C(C)c1cc2ccccc2o1` [2-(1-(Benzofuran-2-yl)ethylidene)-N-(2-methoxyphenyl)hydrazinecarbothioamide (3o)] the IC50 was 24 µM.
